Molecules are shown by their SMILES. “And” between values parts separate entries of the source, which are not always exact repeats. Identical values can stand only once. “Also recorded” adds a separate entry of the source. Like-named read-outs stand apart in the source and are kept apart here.

Data set [1] has as its system D3R. The following applies: cited from earlier work.
The conditions of data set [2]: ref Mukherjee et al., 2000; cited from earlier work.
Data set [3] addresses D2R high-affinity (D2Rhigh) sites. The settings on record: read-out: Kd for D2Rhigh, 1996, cited from earlier work.
Data set [4] relates to D3R. The settings on record: human brain; ref Tziortzi et al., 2011; cited from earlier work.
Data set [5] concerns the target D2RLong. The following applies: read-out: D2RLong Ki; with 3H-spiperone; ref Stark et al., 2007; cited from earlier work.
In data set [6] the test system is D2R/D3R. The experiment in a line: PET/CT of 18F-fallypride in wild type and D2R knock-out mice. In kind it is in vivo.
For data set [7], the target named is D2R/D3R (Mus musculus, UniProt P30728). Described as above. The settings on record: D2R knock-out mice, PET. Format: in vivo.
Sequence of D2R/D3R (Mus musculus, UniProt P30728) (P30728 whole entry): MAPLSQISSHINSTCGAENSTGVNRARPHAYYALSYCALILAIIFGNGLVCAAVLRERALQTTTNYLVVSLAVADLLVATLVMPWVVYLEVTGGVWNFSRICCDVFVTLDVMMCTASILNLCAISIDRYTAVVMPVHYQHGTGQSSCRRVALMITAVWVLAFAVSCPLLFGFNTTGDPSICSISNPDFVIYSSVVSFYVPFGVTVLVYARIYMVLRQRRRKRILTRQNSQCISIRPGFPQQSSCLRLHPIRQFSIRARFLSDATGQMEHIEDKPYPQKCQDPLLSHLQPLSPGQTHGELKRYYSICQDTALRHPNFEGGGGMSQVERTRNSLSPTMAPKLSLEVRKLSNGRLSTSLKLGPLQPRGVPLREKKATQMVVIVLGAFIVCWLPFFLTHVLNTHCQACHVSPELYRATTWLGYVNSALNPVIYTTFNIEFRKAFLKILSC
Data set [8] relates to dopamine D3R, D2Rhigh and D2Rlow receptors. Description: Approximate levels of 18F-fallypride bound to receptor subtypes. The following applies: in vivo levels in striatum.
Data set [9] deals with D2RShort. The following applies: read-out: D2RShort Ki; with 3H-spiperone; ref Stark et al., 2007; cited from earlier work.
For data set [10], the system named is dopamine D2 receptor (D2R)/D3R. In kind it is binding, rabbit.
The test system of data set [11] is dopamine D2 receptor (D2R)/D3R. Description: In vivo rat PET: drug-induced displacement of 18F-fallypride. The following applies: for 18F-Fallypride displacement in vivo (change), Dorsal Striatum / 18F-Fallypride displacement in vivo (change), Ventral Striatum: 90 min post 18F-fallypride. Background: Loss of bound radioactivity is the signal in a displacement assay; it reports binding, not function.

Data set [12] is described as follows: Brain uptake / approximated brain concentration after intravenous injection. Format: in vivo, rat. The settings on record: assuming uptake like 11C-5-OH-DPAT.
The subject of data set [13] is dopamine D2 receptor (D2R)/D3R.
For data set [14] the following is noted: reason for HPbCD vehicle; ref Xi et al., 2004; Gilbert et al. 2005; cited from earlier work.
For data set [15], the target named is D2 Receptor. The following applies: read-out: Binding Affinity D2 Receptor, cited from earlier work.
The subject of data set [16] is D3 Receptor. The experiment in a line: Binding affinity of drugs at D3 receptor. The following applies: for In Vitro D3 Selectivity: D2/D3 affinity ratio of the cited Table 1 values.
Data set [17] concerns the target D3 Receptor. The settings on record: read-out: Binding Affinity D3 Receptor, cited from earlier work.
Where [18] appears, read: In Vitro and In Vivo PET, ref Mukherjee et al., 2000, Shi et al., 2004.
Where [19] appears, read: BPND KO/BPND WT, mice, listed as 18F-fallypride.
Setting [20] is: wild-type mice, PET, cerebellum reference.
Setting [21] is: intravenous dose of 0.015 mg/kg.
Setting [22] is: rat sagittal slices, 10 µM drug, dorsal and ventral striata.

For the compound `CCCN([11CH2]CC)C1CCc2c(O)cccc2C1` (racemic) [11C-5-OH-DPAT, 11C-(R,S)-5-hydroxy-2-(di-n-propylamino)tetralin], in [1] (setting [18]), the “Findings (receptor subtype binding)” value is “D2Rhigh and some D3R (yet to be confirmed)”. Further, in data set [2], the “Uptake in the rat brain” value is “approximately 1 % of the injected dose”.
Turning to `CCCN(CCCCC[18F])C1CCc2c(O)cccc2C1` (racemic) [18F-5-OH-FPPAT, (R,S)-2-(N-propyl-N-(5-^18F-fluoropentyl)-5-hydroxyaminotetralin], in [1] (setting [18]), the “Findings (receptor subtype binding)” value was “D2Rhigh and some D3R (yet to be confirmed)”.
For the compound `CCCN(CCC)C1CCc2ccc(O)cc2C1` (centres unmarked) [3H-7-OH-DPAT], the “Findings (receptor subtype binding)” value in data set [1] (In Vitro, ref Gonzalez and Sibley, 1995) was “D3R binding at low concentrations and D2Rhigh at higher concentrations”.
As a reminder, the Kd is the free concentration of one partner at which half of the binding sites on the other are occupied at equilibrium, for simple one-to-one binding. For the compound `CCCN(CCC)C1CCc2ccc(O)cc2C1` (centres unmarked) [7-OH-DPAT], in data set [3] (ref van Vliet et al.), the Kd was 56 nM and 89 nM.
As for `CC[11CH2]N1CCO[C@@H]2c3cc(O)ccc3CCC21` (some centres unmarked) [11C-PHNO], in data set [4], the “D3R binding fraction, substantia nigra and hypothalamus” value is recorded as 100%; the “D3R binding fraction, ventral striatum” value was 26%.
Take `C=CCN1CCC[C@H]1CNC(=O)c1cc(CCC[18F])cc(OC)c1OC` [18F-Fallypride, (S)-N-[(1-allyl-2-pyrrolidinyl)methyl]-5-(3-[18F]fluoropropyl)-2,3-dimethoxybenzamide]: the Ki in data set [5] was 2.2 nM. In addition, in data set [6] (BPND KO/BPND WT, mice), the “fD3 (fraction of total binding to D3 receptors), Dorsal Striatum” value is given as 0%; the “fD3 (fraction of total binding to D3 receptors), Hypothalmus” value is reported as 98.5%; the “fD3 (fraction of total binding to D3 receptors), Substantia nigra/ Ventral tegmental area” value stood at 99.2%; the “fD3 (fraction of total binding to D3 receptors), Ventral Striatum” value was determined as 15.6%. For the same compound, in data set [6] (setting [19]), the “fD3 (fraction of total binding to D3 receptors), Hypothalmus” value is reported as ~ 100%; the “fD3 (fraction of total binding to D3 receptors), Substantia nigra/ Ventral tegmental area” value is given as ~ 100%; the “fD3 (fraction of total binding to D3 receptors), Ventral Striatum” value came out at 15%. In addition, in data set [6] (setting [20]), the “BPND WT, Dorsal Striatum” value is given as 5.30; the “BPND WT, Hypothalmus” value was 1.38; the “BPND WT, Substantia nigra/ Ventral tegmental area” value worked out at 0.81; the “BPND WT, Ventral Striatum” value turned out to be 3.51. In data set [7], the “BPND KO, Hypothalmus” value worked out at 1.36; the “BPND KO, Substantia nigra/ Ventral tegmental area” value came to 0.81; the “BPND KO, Ventral Striatum” value is 0.55. Moreover, the “BPND KO, Dorsal Striatum” value in data set [7] (small negative values listed as 0) is given as 0. In [8], the “Level of 18F-fallypride bound to D2Rhigh” value is recorded as roughly 60%, the “Level of 18F-fallypride bound to D2Rlow” value is roughly 20% and the “Level of 18F-fallypride bound to D3R” value is on record as roughly 20%. For the same compound, the Ki in [9] is 2.1 nM.
As to `CCCN(CC=C[125I])C1CCc2ccc(O)cc2C1` (centres unmarked) [125I-7-OH-PIPAT], the “Findings (receptor subtype binding)” value in data set [1] (In Vitro, ref Mugnani et al., 2013, Gurevich and Joyce, 1999) was “D3R binding; D2Rhigh binding not known”.
Consider `CCCN(CCC)[C@@H]1CCc2ccc(O)cc2C1` [(R)-7-OH-DPAT], for which the “18F-fallypride binding reduced by” value in data set [10] (10 nM drug, rabbit nucleus accumbens) is listed as 10–15%; in data set [10] (10 µM drug, all regions in rabbit), no less than 85%; in data set [13] (10 nM drug, rat ventral striatum (VST) and dorsal striatum (DST)), 10–15%; in [13] (10 µM drug, all regions in rat), no less than 85%. Moreover, the 18F-fallypride displaced entry in data set [10] (rabbit sagittal slices, lower doses, olfactory tubercle and nucleus accumbens) is recorded as “approx. 15%”; in data set [13] (rat horizontal slices, 100 nM drug), “approx. 30%”; in [13] (rat horizontal slices, 10 µM drug) it was “exceeded 80%”; in data set [13] (rat horizontal slices, micromolar concentration), “about 60%”; in data set [13] (rat sagittal slices, 10 µM drug, dorsal striatum) it was “approx. 75%”. For the same compound, the “18F-Fallypride displacement in vivo (change), Dorsal Striatum” value is −22% and −21.5% in data set [11] (0.015 mg/kg iv, rat PET); −32.9% in [11] (0.06 mg/kg iv, rat PET); −67.9% in data set [11] (0.38 mg/kg iv, rat PET); −58% and −57.6% in [11] (1.88 mg/kg iv, rat PET). Besides, the “18F-Fallypride displacement in vivo (change), Ventral Striatum” value in [11] (0.015 mg/kg iv, rat PET) is −29% and −28.7%; in data set [11] (0.06 mg/kg iv, rat PET) it was −43.4%; in data set [11] (0.38 mg/kg iv, rat PET) it was −75%; in [11] (1.88 mg/kg iv, rat PET), −77% and −76.7%. The “Nondisplaced 18F-Fallypride” value was in the range of 71 to 78% in [11] (0.015 mg/kg iv, rat PET); 57 to 67% in data set [11] (0.06 mg/kg iv, rat PET); 25 to 32% in data set [11] (0.38 mg/kg iv, rat PET); 23 to 42% in data set [11] (1.88 mg/kg iv, rat PET). Besides, the “displacement of 18F-fallypride in the ventral striatum” value stood at 29% in data set [11] (0.015 mg/kg iv, rat PET) and 77% in data set [11] (1.88 mg/kg iv, rat PET). The “dorsal striatum 18F-fallypride binding reduced by” value in [11] (0.015 mg/kg iv, rat PET) was 22%; in data set [11] (1.88 mg/kg iv, rat PET), 58%. Further, the “18F-fallypride displaced in vivo” value in data set [11] (dose of 1.88 mg/kg) is given as “greater than 50%”; in [11] (setting [21]) it was “approximately 20%”. For the same compound, the Kd in [3] (ref Gonzalez and Sibley, 1995, van Vliet et al.) is 56 nM and 89 nM. Besides, the Approximated brain concentration result in data set [12] (dose of 1.88 mg/kg) is given as “approximately 100 nM”; in data set [12] (setting [21]) it was 0.6 to 1 nM.
Turning to `COc1ccccc1N1CCN(CCCCNC(=O)c2ccc3ccccc3c2)CC1` [BP 897], in [14], the Water solubility entry is listed as “low water solubility”. Further, in data set [11] (3 mg/kg iv at 90 min post 18F-fallypride, rat PET), the “18F-fallypride displaced, dorsal and ventral striatum” value is on record as 24–29%. Also, in data set [11] (3.2 mg/kg at 90 min, rat PET), the “Effect on 18F-fallypride binding in DSTR and VSTR” value is “visible reduction”. Further, in [11] (3.2 mg/kg iv in HPbCD, rat PET), the “18F-Fallypride displacement in vivo (change), Dorsal Striatum” value is reported as −29.3% and the “18F-Fallypride displacement in vivo (change), Ventral Striatum” value was −24.0%. In data set [11] (3.2 mg/kg iv, rat PET), the “Nondisplaced 18F-Fallypride” value lay within 70 to 76%. Further, the “18F-fallypride displaced in vivo” value in data set [11] (rat PET, striatum, dose not given at place) is greater than 20%. The 18F-fallypride displaced entry in data set [13] (setting [22]) is given as “more than 90%”.
As to `C=CCN1CCC[C@H]1CNC(=O)c1cc(CCCF)cc(OC)c1OC` [Fallypride], the Ki in [15] (ref Stark et al., 2007) is 2.1 nM.
Consider `O=C(NCCCCN1CCN(c2cccc(Cl)c2Cl)CC1)c1ccc2c(c1)Cc1ccccc1-2` [NGB 2904], for which the Water solubility entry in data set [14] is on record as “low water solubility”. The “Effect on 18F-fallypride binding in dorsal and ventral striatum” value in data set [11] (4 mg/kg iv at 90 min, rat PET) is listed as “no measureable reduction; also recorded: not evident”. Besides, in data set [11] (4.0 mg/kg iv in HPbCD, rat PET), the “18F-Fallypride displacement in vivo (change), Dorsal Striatum” value is reported as “Not significant” and the “18F-Fallypride displacement in vivo (change), Ventral Striatum” value is recorded as “Not significant”. Also, the “Nondisplaced 18F-Fallypride” value in data set [11] (4.0 mg/kg iv, rat PET) is reported as 100%. Moreover, in data set [16], the “D3R selectivity (over D2R)” value is recorded as greater than 50 fold and the “In Vitro D3 Selectivity” value is reported as 56. The 18F-fallypride displaced in data set [13] (setting [22]) fell in the range of 40 to 50%. Moreover, the Ki in data set [17] (ref Heiderbreder et al., 2010) was 2 nM. Moreover, in data set [15] (ref Heiderbreder et al., 2010), the Ki is 112 nM.
On to `CCCN1CCO[C@@H]2c3cc(O)ccc3CC[C@H]21` [PHNO], for which the “In Vitro D3 Selectivity” value in data set [16] was 53. Moreover, the Ki was 0.16 nM in data set [17] (ref Willeit et al., 2006) and 8.5 nM in data set [15] (ref Willeit et al., 2006).
